For seven compounds, mutagenic call results are on record in PubChem BioAssay AID1259407 (Chemical Carcinogenesis Research Information System (CCRIS), 2018).

This data set concerns CCRIS mutagenicity, Ames/micronucleus/aberration tests. Put plainly: CCRIS mutagenicity studies.
The mark [1] stands for this setting: Test System: AMES SALMONELLA TYPHIMURIUM, Strain/Indicator: TA98, Metabolic Activation: NONE, Method: STANDARD PLATE.
[2] abbreviates: Test System: AMES SALMONELLA TYPHIMURIUM, Strain/Indicator: TA100, Metabolic Activation: NONE, Method: STANDARD PLATE.
The mark [3] stands for this setting: Test System: AMES SALMONELLA TYPHIMURIUM, Strain/Indicator: TA100, Metabolic Activation: RAT, LIVER, S-9, AROCLOR 1254, Method: STANDARD PLATE.

Calls of active or inactive are those of the source. How the calls were made is not given here.

As to `CCCO`, the mutagenic call was “inactive; negative” (Test System: AMES SALMONELLA TYPHIMURIUM, Strain/Indicator: TA98, Metabolic Activation: HAMSTER, LIVER, S-9, AROCLOR 1254, Method: STANDARD PLATE); “inactive; negative” under setting [1]; “inactive; negative” (Test System: AMES SALMONELLA TYPHIMURIUM, Strain/Indicator: TA98, Metabolic Activation: RAT, LIVER, S-9, AROCLOR 1254, Method: STANDARD PLATE); “inactive; negative” (Test System: AMES SALMONELLA TYPHIMURIUM, Strain/Indicator: TA100, Metabolic Activation: HAMSTER, LIVER, S-9, AROCLOR 1254, Method: STANDARD PLATE); “inactive; negative” under setting [2]; “inactive; negative” under setting [3]. The mutagenic call by setting is: (Test System: AMES SALMONELLA TYPHIMURIUM, Strain/Indicator: TA1535, Metabolic Activation: HAMSTER, LIVER, S-9, AROCLOR 1254, Method: STANDARD PLATE) “inactive; negative”; (Test System: AMES SALMONELLA TYPHIMURIUM, Strain/Indicator: TA1535, Metabolic Activation: NONE, Method: STANDARD PLATE) “inactive; negative”; (Test System: AMES SALMONELLA TYPHIMURIUM, Strain/Indicator: TA1535, Metabolic Activation: RAT, LIVER, S-9, AROCLOR 1254, Method: STANDARD PLATE) “inactive; negative”; (Test System: AMES SALMONELLA TYPHIMURIUM, Strain/Indicator: TA1537, Metabolic Activation: HAMSTER, LIVER, S-9, AROCLOR 1254, Method: STANDARD PLATE) “inactive; negative”; (Test System: AMES SALMONELLA TYPHIMURIUM, Strain/Indicator: TA1537, Metabolic Activation: NONE, Method: STANDARD PLATE) “inactive; negative”; (Test System: AMES SALMONELLA TYPHIMURIUM, Strain/Indicator: TA1537, Metabolic Activation: RAT, LIVER, S-9, AROCLOR 1254, Method: STANDARD PLATE) “inactive; negative”. For the same compound, the mutagenic call (Test System: AMES SALMONELLA TYPHIMURIUM, Strain/Indicator: TA1538, Metabolic Activation: HAMSTER, LIVER, S-9, AROCLOR 1254, Method: STANDARD PLATE) was “inactive; negative”; the mutagenic call (Test System: AMES SALMONELLA TYPHIMURIUM, Strain/Indicator: TA1538, Metabolic Activation: NONE, Method: STANDARD PLATE) is “inactive; negative”; the mutagenic call (Test System: AMES SALMONELLA TYPHIMURIUM, Strain/Indicator: TA1538, Metabolic Activation: RAT, LIVER, S-9, AROCLOR 1254, Method: STANDARD PLATE) was “inactive; negative”; the mutagenic call (Test System: MOUSE LYMPHOMA, Strain/Indicator: L5178Y (TK+/TK-), Metabolic Activation: NONE, Method: SUSPENSION/PLATE) was “inactive; negative”; the mutagenic call (Test System: MOUSE LYMPHOMA, Strain/Indicator: L5178Y (TK+/TK-), Metabolic Activation: RAT, LIVER, S-9, AROCLOR 1254, Method: SUSPENSION/PLATE) is “inactive; negative”.
Consider `COc1c2ccoc2nc2c(OC)cccc12`, for which the mutagenic call by setting is: (Test System: AMES SALMONELLA TYPHIMURIUM, Strain/Indicator: TA98, Metabolic Activation: RAT, LIVER, MICROSOMES, PHENOBARBITAL, Method: STANDARD PLATE) “active; positive”; (Test System: AMES SALMONELLA TYPHIMURIUM, Strain/Indicator: TA98, Metabolic Activation: RAT, LIVER, S-9, PHENOBARBITAL, Method: STANDARD PLATE) “active; positive”; (Test System: AMES SALMONELLA TYPHIMURIUM, Strain/Indicator: TA100, Metabolic Activation: RAT, LIVER, MICROSOMES, PHENOBARBITAL, Method: STANDARD PLATE) “active; positive”; (Test System: AMES SALMONELLA TYPHIMURIUM, Strain/Indicator: TA100, Metabolic Activation: RAT, LIVER, S-9, PHENOBARBITAL, Method: STANDARD PLATE) “active; positive”; (Test System: AMES SALMONELLA TYPHIMURIUM, Strain/Indicator: TA1535, Metabolic Activation: RAT, LIVER, MICROSOMES, PHENOBARBITAL, Method: STANDARD PLATE) “inactive; negative”; (Test System: AMES SALMONELLA TYPHIMURIUM, Strain/Indicator: TA1538, Metabolic Activation: RAT, LIVER, MICROSOMES, PHENOBARBITAL, Method: STANDARD PLATE) “active; positive”.
As to `[O-][Cl+3]([O-])([O-])O`, the mutagenic call by setting is: (Test System: AMES SALMONELLA TYPHIMURIUM, Strain/Indicator: TA98, Metabolic Activation: NONE, Method: PREINCUBATION) “inactive; negative”; (Test System: AMES SALMONELLA TYPHIMURIUM, Strain/Indicator: TA98, Metabolic Activation: RAT LIVER S-9, PHENOBARBITAL AND BETA-NAPHTHOFLAVONE, Method: PREINCUBATION) “inactive; negative”; (Test System: AMES SALMONELLA TYPHIMURIUM, Strain/Indicator: TA100, Metabolic Activation: NONE, Method: PREINCUBATION) “inactive; negative”; (Test System: AMES SALMONELLA TYPHIMURIUM, Strain/Indicator: TA100, Metabolic Activation: RAT LIVER S-9, PHENOBARBITAL AND BETA-NAPHTHOFLAVONE, Method: PREINCUBATION) “inactive; negative”; (Test System: AMES SALMONELLA TYPHIMURIUM, Strain/Indicator: TA1535, Metabolic Activation: NONE, Method: PREINCUBATION) “inactive; negative”; (Test System: AMES SALMONELLA TYPHIMURIUM, Strain/Indicator: TA1535, Metabolic Activation: RAT LIVER S-9, PHENOBARBITAL AND BETA-NAPHTHOFLAVONE, Method: PREINCUBATION) “inactive; negative”. Further, the mutagenic call runs as follows: (Test System: AMES SALMONELLA TYPHIMURIUM, Strain/Indicator: TA1537, Metabolic Activation: NONE, Method: PREINCUBATION) “inactive; negative”; (Test System: AMES SALMONELLA TYPHIMURIUM, Strain/Indicator: TA1537, Metabolic Activation: RAT LIVER S-9, PHENOBARBITAL AND BETA-NAPHTHOFLAVONE, Method: PREINCUBATION) “inactive; negative”; (Test System: AMES SALMONELLA TYPHIMURIUM, Strain/Indicator: TA1538, Metabolic Activation: NONE, Method: PREINCUBATION) “inactive; negative”; (Test System: AMES SALMONELLA TYPHIMURIUM, Strain/Indicator: TA1538, Metabolic Activation: RAT LIVER S-9, PHENOBARBITAL AND BETA-NAPHTHOFLAVONE, Method: PREINCUBATION) “inactive; negative”; (Test System: E.COLI, Strain/Indicator: WP2UVRA, Metabolic Activation: NONE, Method: PREINCUBATION) “inactive; negative”; (Test System: E.COLI, Strain/Indicator: WP2UVRA, Metabolic Activation: RAT LIVER S-9, PHENOBARBITAL AND BETA-NAPHTHOFLAVONE, Method: PREINCUBATION) “inactive; negative”.
Take `Cc1c2ccccc2c(CO)c2c1ccc1ccccc12`: the mutagenic call reads like this: (Test System: CHINESE HAMSTER V-79, Strain/Indicator: V-79/6-THIOGUANINE, Metabolic Activation: CELL-MEDIATED, Method: STANDARD PLATE) “active; positive”; (Test System: CHINESE HAMSTER V-79, Strain/Indicator: V-79/OUABAIN, Metabolic Activation: CELL-MEDIATED, Method: STANDARD PLATE) “active; positive”.
For `COc1cc2c(c3oc(=O)c4c(c13)CC[C@H]4O)[C@@H]1C=CO[C@@H]1O2`, the mutagenic call is “inactive; negative” under setting [2] and “active; positive” under setting [3].
On to `C=CCCCCCCCCCCCC`, for which the mutagenic call by setting is: under setting [1], “inactive; negative”; (Test System: AMES SALMONELLA TYPHIMURIUM, Strain/Indicator: TA98, Metabolic Activation: RAT, LIVER, S-9, AROCLOR, Method: STANDARD PLATE) “inactive; negative”; under setting [2], “inactive; negative”; (Test System: AMES SALMONELLA TYPHIMURIUM, Strain/Indicator: TA100, Metabolic Activation: RAT, LIVER, S-9, AROCLOR, Method: STANDARD PLATE) “inactive; negative”; (Test System: AMES SALMONELLA TYPHIMURIUM, Strain/Indicator: UTH8413, Metabolic Activation: NONE, Method: STANDARD PLATE) “inactive; negative”; (Test System: AMES SALMONELLA TYPHIMURIUM, Strain/Indicator: UTH8413, Metabolic Activation: RAT, LIVER, S-9, AROCLOR, Method: STANDARD PLATE) “inactive; negative”. For the same compound, the mutagenic call (Test System: AMES SALMONELLA TYPHIMURIUM, Strain/Indicator: UTH8414, Metabolic Activation: NONE, Method: STANDARD PLATE) was “inactive; negative” and the mutagenic call (Test System: AMES SALMONELLA TYPHIMURIUM, Strain/Indicator: UTH8414, Metabolic Activation: RAT, LIVER, S-9, AROCLOR, Method: STANDARD PLATE) is “inactive; negative”.
As to `Cc1ncc(CNC(=O)N(CCCl)N=O)c(N)n1`, the mutagenic call runs as follows: under setting [1], “active; positive”; under setting [2], “active; positive”; (Test System: E. COLI, Strain/Indicator: WP2 (HCR), Metabolic Activation: NONE, Method: STANDARD PLATE) “active; positive”.
